Reference: ChEMBL document CHEMBL4476863, “Heterocyclic compounds for the inhibition of pask” (2012)

Target: PAS domain-containing serine/threonine-protein kinase (Homo sapiens, UniProt Q96RG2)
Assay: Inhibition of purified human PASK kinase domain expressed in insect cells incubated for 10 mins using MBP protein by kinase-Glo luminescent kinase assay

PAS domain-containing serine/threonine-protein kinase, sequence (Q96RG2 whole entry, the tested form may be a part): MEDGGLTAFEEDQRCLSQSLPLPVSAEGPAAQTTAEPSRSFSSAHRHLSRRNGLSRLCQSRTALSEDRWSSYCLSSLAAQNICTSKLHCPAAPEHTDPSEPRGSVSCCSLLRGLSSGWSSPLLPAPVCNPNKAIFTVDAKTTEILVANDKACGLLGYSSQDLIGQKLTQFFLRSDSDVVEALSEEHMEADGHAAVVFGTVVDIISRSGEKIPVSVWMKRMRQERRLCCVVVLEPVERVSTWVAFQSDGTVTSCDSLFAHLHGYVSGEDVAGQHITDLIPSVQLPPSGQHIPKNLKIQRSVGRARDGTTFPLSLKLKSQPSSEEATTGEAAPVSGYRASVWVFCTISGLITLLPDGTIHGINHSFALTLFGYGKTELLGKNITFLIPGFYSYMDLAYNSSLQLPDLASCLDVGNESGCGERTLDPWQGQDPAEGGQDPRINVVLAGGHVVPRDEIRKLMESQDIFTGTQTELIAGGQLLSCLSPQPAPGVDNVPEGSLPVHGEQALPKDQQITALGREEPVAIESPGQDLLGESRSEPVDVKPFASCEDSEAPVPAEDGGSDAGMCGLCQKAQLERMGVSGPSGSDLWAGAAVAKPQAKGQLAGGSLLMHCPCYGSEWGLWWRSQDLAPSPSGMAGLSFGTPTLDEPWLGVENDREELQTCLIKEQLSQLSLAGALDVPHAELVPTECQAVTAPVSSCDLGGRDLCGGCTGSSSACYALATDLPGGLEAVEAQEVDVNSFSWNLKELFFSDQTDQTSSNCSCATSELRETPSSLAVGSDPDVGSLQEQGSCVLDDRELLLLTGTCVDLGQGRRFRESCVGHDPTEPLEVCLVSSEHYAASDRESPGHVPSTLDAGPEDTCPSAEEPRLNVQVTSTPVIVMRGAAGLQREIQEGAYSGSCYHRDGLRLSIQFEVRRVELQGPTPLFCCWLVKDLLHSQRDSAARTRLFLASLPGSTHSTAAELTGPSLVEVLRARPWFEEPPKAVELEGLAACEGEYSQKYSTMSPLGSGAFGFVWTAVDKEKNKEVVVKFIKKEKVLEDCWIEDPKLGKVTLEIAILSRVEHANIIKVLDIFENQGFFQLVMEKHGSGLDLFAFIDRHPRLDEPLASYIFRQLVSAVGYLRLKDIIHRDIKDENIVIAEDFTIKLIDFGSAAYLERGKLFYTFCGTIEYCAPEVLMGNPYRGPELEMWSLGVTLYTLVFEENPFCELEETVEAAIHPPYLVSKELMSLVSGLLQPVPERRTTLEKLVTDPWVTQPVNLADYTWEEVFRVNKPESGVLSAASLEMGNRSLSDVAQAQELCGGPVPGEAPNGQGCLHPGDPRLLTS

In the case of O=c1cc(-c2ccc3c(c2)OCO3)[nH]c2c(-c3ccccn3)cnn12, the IC50 is reported as ≤ 10 µM.
